{
  "source": "patent US20250122241A1",
  "about": "“CYCLIC PEPTIDE IMMUNOMODULATORS” (BRISTOL-MYERS SQUIBB COMPANY, priority 2021, published 2025)",
  "origin": "cited, not measured here",
  "conditions": "oral administration; extensive first-pass metabolism in the liver",
  "data": [
    {"smiles": "CCCC1O[C@@H]2C[C@H]3[C@@H]4CCC5=CC(=O)C=C[C@]5(C)[C@H]4[C@@H](O)C[C@]3(C)[C@]2(C(=O)CO)O1", "note": "(stereo partly shown) [budesonide]", "values": [
      {"measurement": "bioavailability", "value": "about 10%"}
    ]}
  ]
}
